In this test the target is T1, PspXyn10 (Penicillium sp., UniProt A0A2Z5XER4).
T1 construct: full-length cDNA (404 residues), predicted signal peptide 1-22 removed on secretion; GH10 (25-336) + CBM1 (372-404); untagged, expressed in Trichoderma reesei C1PX10, purified; 55 kDa on SDS-PAGE; internal peptides LYYNDYNLESAGAK, NHLTNVVTHYK, YAWDVVNEGLNDDGTYR
T1 sequence (A0A2Z5XER4 23-404): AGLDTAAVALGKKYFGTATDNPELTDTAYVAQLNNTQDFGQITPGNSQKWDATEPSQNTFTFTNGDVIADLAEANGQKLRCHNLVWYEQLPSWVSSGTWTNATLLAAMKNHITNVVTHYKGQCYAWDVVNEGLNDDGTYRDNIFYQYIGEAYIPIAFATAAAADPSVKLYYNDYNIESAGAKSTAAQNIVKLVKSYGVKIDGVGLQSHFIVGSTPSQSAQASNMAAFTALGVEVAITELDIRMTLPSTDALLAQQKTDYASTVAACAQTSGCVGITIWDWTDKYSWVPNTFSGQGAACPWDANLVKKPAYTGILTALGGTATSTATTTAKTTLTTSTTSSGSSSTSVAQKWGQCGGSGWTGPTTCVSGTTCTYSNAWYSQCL
Description: p-nitrophenol release, absorbance at […] nm. It is filed as biochemical. Particulars: 1 mM substrate; 50 mM sodium acetate pH 5.0; 50 °C; 5 min.

The structures appear in SMILES notation.

For `O=[N+]([O-])c1ccc(O[C@@H]2OC[C@@H](O[C@@H]3OC[C@@H](O)[C@H](O)[C@H]3O)[C@H](O)[C@H]2O)cc1` [pNPX2, p-nitrophenyl xylobioside], the specific activity result was “enzymatic activity of purified PspXyn10, JN11H, and JNK25H against p-nitrophenyl xylobioside (pNPX2) was assayed”.

Source of the values: PMC5698967, “A novel GH10 xylanase from Penicillium sp. accelerates saccharification of alkaline-pretreated bagasse by an enzyme from recombinant Trichoderma reesei expressing Aspergillus β-glucosidase” (Biotechnology for Biofuels, 2017).
